According to US7745450B2, “Pyrazolo[4,3-d]pyrimidines, processes for their preparation and methods for therapy” (Institute of Experimental Botany, priority 2002, dated 2010):
Like-named read-outs stand apart in the source and are kept apart here.

Columns and labels:
[1] = tested on: PHA-stimulated lymphocytes (PBMC); experiment: Proliferation of PHA-stimulated lymphocytes (PBMC), flow cytometric cell count; assay type: cell-based, human; details: 96 hours, IL-2
Experimental: Peripheral blood mononuclear cells (PBMC): Human peripheral blood mononuclear cells were isolated by density gradient (Ficoll-Hypaque) (LSM, ICN Biomedicals Inc.). PBMC were stimulated with 5 μg/ml phytohemaglutinin A (PHA) (Sigma) during 24-48 hours in IMDM supplemented with 10% FCS at 37° C. After washing off the PHA, PBMC were incubated with interleukin-2 (IL-2) (10 U/ml) (Genzyme).
(§1) Cells were plated at 10000 per well in 200 μl IMDM medium and incubated with 0-50 μM of the novel compounds (Tab 8), by addition of drug directly to the culture medium and incubated at 37° C. for 96 hours (Tab 8). Absolute cell number was determined by addition of a known concentration Fluoresbrite microspheres (FITC) (Polysciences, Inc.). The absolute number of cells/well was calculated as: {(total number of beads added/well)/(number of beads measured)×(number of measured cells in the gate of interest)}. All analyses were performed with a FACScan (BD), using CELLQuest software (Becton Dickinson).
PHA-stimulated lymphocytes (PBMC) were tested for their cytotoxicity as one of the normal counterparts of the cell lines. Cells were grown for 96 hours in the presence of IL-2 and different concentrations of the novel compounds and cell number was counted on the flow cytometer.

[2] = tested on: myeloid leukemia KG1 cell line; experiment: Cell proliferation of KG1, flow cytometric cell count; assay type: cell-based, human; details: 96 hours; for IC50: read-out: KG1 IC50
Experimental: (§2) Cell lines: Human leukemic cell lines were obtained from the American Type Culture Collection (ATCC, Rockville, Md., USA). They were cultured in Iscove's Modified Dulbecco's Medium (IMDM) supplemented with 10% heat inactivated fetal calf serum (FCS), 200 U/ml penicillin, 200 μg/ml streptomycin and 1 μg/ml amphotericin B. Cells were cultured in a 5% CO2-95% air fully humidified incubator. For effects on clonogenic output, 1000 cells/well were plated in duplicate in methylcellulose (0.9%), supplemented with 20% FCS for 14 days.
as §1
(§3) Response of the myeloid leukemia KG1 and T-lymphocyte leukemia Molt3 cell lines to the cytostatic effect of the novel compounds was determined using the above-mentioned standardized bead suspension that was used to determine the absolute cell number by flow cytometric (FCM) measurement. Cells were grown in the presence of increasing concentration of the novel compounds.
To determine reversibility of the effects of the novel compounds, cells were plated at 10000 per well and exposed to 0-50 μM of the compounds for the time indicated, followed by washing in phosphate-buffered saline (PBS) (Life Technologies) and reseeded into drug-free medium for 7 additional days. An identical set of cells was plated and exposed to the drugs for 7 additional days. After 7 days (168 hours), the relative cell number was assayed by flow cytometry.

cdk1/cyclin B (CDC2) = cdk1/cyclin B (CDC2) (Homo sapiens, UniProt P06493); experiment: CDK inhibition assay, cdk1/cyclin B (CDC2) kinase, histone phosphorylation; assay type: biochemical; details: cell free system (Table 8)
Summary of the method: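 Human cdk1/cyclin B activity measured with 1 mg/ml histone substrate, 15 μM ATP plus [γ-32P]ATP, in HEPES pH 7.4 buffer with 10 mM MgCl2. Phosphorylation quantified by phosphorimaging; activity expressed as % of maximum, IC50 from dose-response curves by graphic analysis.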

[3] = tested on: T-lymphocyte leukemia Molt3 cell line; experiment: Cell proliferation of Molt3, flow cytometric cell count; assay type: cell-based, human; details: 96 hours
Experimental: as §2, §1, §3

[4] = tested on: human diploid fibroblasts (HCA cells); experiment: Inhibition of senescence, β-galactosidase staining of fibroblasts; assay type: cell-based; details: for SENESCENT CELLS (%) HCA25: HCA cells passage 25, β-galactosidase staining; for SENESCENT CELLS (%) HCA45: HCA cells passage 45, β-galactosidase staining; for SENESCENT CELLS (%) HCA80: HCA cells passage 80, β-galactosidase staining
Experimental: In this example, human diploid fibroblasts (HCA cells of various passage levels: passage 25—designated HCA25; passage 45—designated HCA45; passage 80—designated HCA80) were stained for β-galactosidase activity. The medium present on cultured cells was removed, the cells were washed twice in […], and fixed in 2-3 ml of fixing solution comprised of a 2% formaldehyde and 0.2% glutaraldehyde in PBS. The cells were incubated at room temperature for 5 minutes, then washed twice with PBS. The cells were then incubated at 37° C. […] In this experiment, senescent cells, but not other cells were stained blue due to the action of β-galactosidase on the substrate (FIG. 9).

[5] = tested on: CEM (human lymphoblastoid leukemia); experiment: In vitro cytotoxic activity, Calcein AM; assay type: cell-based; details: Homo sapiens, 72 h, three days
Summary of the method: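 CEM cells were seeded at 10^4/well in DMEM + 10% FBS and exposed to six concentrations from 200 to 0.2 μM, in triplicate, for 3 days at 37 °C and 5% CO2. Viable cells were then measured by Calcein AM fluorescence after 1 h loading.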

B16 = experiment: In vitro cytotoxic activity, Calcein AM; assay type: cell-based; details: Mus musculus, B16, 72 h, three days
MMK1 protein kinase = MMK1 protein kinase (Vicia faba, UniProt A0AAV1B7B8); experiment: MMK1 protein kinase activity; assay type: biochemical
Experimental: Protein extraction and purification of pant CDK by binding to p13^suc1-beads or immunopurification with an antibody specific to the cdc2a-MS protein was carried out as described previously (Bögre et al. 1997, Plant Physiol. 113, 1997, 841-852). The MMK1 protein kinase was purified with a specific antibody from Vicia faba extracts as described by Bögre et al. 1997a, Plant Cell 9, 75-83). Protein kinase activity was measures as described above in Example 20. The quantification of radioactivity incorporated into histone H1 or myelin basic protein was undertaken using phosphoimager (FIG. 2).

normal human lymphocytes = experiment: Immunosuppressive activity, 3H-thymidine incorporation in concanavalin A activated lymphocytes; assay type: cell-based; details: Lymphocyte, 72 hours, [3H]-TdR, read-out: Human lymphocytes ED50
Experimental: Human heparinized peripheral blood was obtained from healthy volunteers by cubital vein punction. The blood was diluted in PBS (1:3) and mononuclear cells were separated by centrifugation in Ficoll-Hypaque density gradient (Pharmacia, 1.077 g/ml) at 2200 rpm for 30 minutes. Following centrifugation, lymphocytes were washed in PBS and resuspended in cell culture medium (RMPI 1640, 2 mM glutamine, 100 U/ml penicillin, 100 μg/ml streptomycin, 10% fetal calf serum and sodium bicarbonate).
The cells were diluted at target density of 1.100.000 cells/ml were added by pipette (180 μl) into 96/well microtiter plates. Four-fold dilutions of the intended test concentration were added at time zero in 20 μl aliquots to the microtiter plate wells. Usually, test compound was evaluated at six 4-fold dilutions. In routine testing, the highest well concentration was 266.7 μM. All drug concentrations were examined in duplicates. All wells with exception of unstimulated controls were activated with 50 μl of concanavalin A (25 μg/ml). Incubations of cells with test compounds lasted for 72 hours at 37° C., in 5% CO2 atmosphere and 100% humidity. At the end of incubation period, the cells were assayed by using the [^3H]-TdR:
Cell cultures were incubated with 0.5 μCi (20 μl of stock solution […]) per well for 6 hours at 37° C. and 5% CO2. The automated cell harvester was used to lyse cells in water and adsorb the DNA onto glass-fiber filters in the format of microtiter plate. The DNA incorporated [^3H]-TdR was retained on the filter while unincorporated material passes through. The filters were dried at room temperature overnight, sealed into a sample bag with 10-12 ml of scintillant. The amount of [^3H]-TdR present in each filter (in cpm) was determined by scintillation counting in a Betaplate liquid scintillation counter. The effective dose of immunosuppressant (ED) was calculated using the following equation: ED=(CCPMdrug exposed well/mean CCPMcontrol wells)×100%.

Chain of MMK1 protein kinase (A0AAV1B7B8 1-394): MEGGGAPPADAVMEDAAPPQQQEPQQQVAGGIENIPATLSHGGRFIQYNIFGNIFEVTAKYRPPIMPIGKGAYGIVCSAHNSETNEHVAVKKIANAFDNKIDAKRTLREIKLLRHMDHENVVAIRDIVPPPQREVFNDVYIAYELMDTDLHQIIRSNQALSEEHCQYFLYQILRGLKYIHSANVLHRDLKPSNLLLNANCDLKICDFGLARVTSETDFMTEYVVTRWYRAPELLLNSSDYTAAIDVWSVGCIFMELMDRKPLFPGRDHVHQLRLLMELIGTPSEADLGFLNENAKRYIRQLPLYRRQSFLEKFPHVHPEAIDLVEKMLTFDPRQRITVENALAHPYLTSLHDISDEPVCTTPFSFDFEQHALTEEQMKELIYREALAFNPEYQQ
Chain of cdk1/cyclin B (CDC2) (P06493 whole entry, species assumed): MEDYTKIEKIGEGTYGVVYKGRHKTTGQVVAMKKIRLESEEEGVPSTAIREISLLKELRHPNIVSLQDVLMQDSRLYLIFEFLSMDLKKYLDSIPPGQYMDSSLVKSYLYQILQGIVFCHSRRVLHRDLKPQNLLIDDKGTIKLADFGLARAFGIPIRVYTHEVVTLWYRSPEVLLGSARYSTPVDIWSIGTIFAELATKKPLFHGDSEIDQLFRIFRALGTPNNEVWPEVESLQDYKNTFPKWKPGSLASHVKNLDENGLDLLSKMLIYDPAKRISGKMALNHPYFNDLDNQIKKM
Chain of cdk1/cyclin B (CDC2) (P14635 whole entry partner, species assumed): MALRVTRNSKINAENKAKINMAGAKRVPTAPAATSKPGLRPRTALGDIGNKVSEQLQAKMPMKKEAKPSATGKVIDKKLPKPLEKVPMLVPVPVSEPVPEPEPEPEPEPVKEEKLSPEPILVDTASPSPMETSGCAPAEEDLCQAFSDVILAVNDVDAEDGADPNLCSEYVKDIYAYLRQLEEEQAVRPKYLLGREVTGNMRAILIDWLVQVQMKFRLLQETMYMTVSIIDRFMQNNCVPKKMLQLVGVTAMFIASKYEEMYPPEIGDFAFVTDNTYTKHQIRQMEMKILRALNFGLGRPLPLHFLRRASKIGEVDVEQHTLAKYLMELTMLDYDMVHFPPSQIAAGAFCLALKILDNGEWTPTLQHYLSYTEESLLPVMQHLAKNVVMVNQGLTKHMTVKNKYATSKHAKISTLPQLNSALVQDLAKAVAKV

Row | Compound | IC50 (MMK1 protein kinase) [µM] | SENESCENT CELLS (%) HCA25 [4] [%] | SENESCENT CELLS (%) HCA45 [4] [%] | SENESCENT CELLS (%) HCA80 [4] [%] | GI50 [5] [µM] | GI50 (B16) [µM] | EC50 (normal human lymphocytes) [µM] | other results
1 | CCC(CO)Nc1nc(NCc2ccc(O)c(O)c2)c2[nH]nc(C(C)C)c2n1 (stereo not shown) [Compound 47, 5-(1-ethyl-2-hydroxyethylamino)-7-(3,4-dihydroxybenzyl)amino-3-isopropylpyrazolo[4,3-d]pyrimidine] |  |  |  |  |  |  |  | IC50 ([1]; Homo sapiens, Lymphocyte): 3 ± 1.2 µM; IC50 ([2]; Homo sapiens, KG-1): 8 ± 1 µM; IC50 (cdk1/cyclin B (CDC2)): 1.2 µM; IC50 ([3]; Homo sapiens, MOLT-3): 10 ± 1 µM
2 | Nc1cc(CNc2ncnc3cn[nH]c23)ccc1Cl [H / 3-amino-4-chlorobenzylamine / H] |  | 4 | 5 | 21 |  |  |  | 
3 | Clc1ccc(Nc2ncnc3cn[nH]c23)cc1 [H / 4-chloroanilino / H] |  | 3 | 6 | 27 |  |  |  | 
4 | CC(C)c1n[nH]c2c(NC(CO)c3ccccc3)nc(N3CCOCC3)nc12 (stereo not shown) [Compound 85, 5-(morpholino)-7-(1-phenyl-2-hydroxyethylamino)-3-isopropylpyrazolo[4,3-d]pyrimidine] |  |  |  |  |  |  |  | IC50 ([1]; Homo sapiens, Lymphocyte): 20 ± 7.7 µM; IC50 ([2]; Homo sapiens, KG-1): 28 ± 1.5 µM; IC50 (cdk1/cyclin B (CDC2)): 5.5 µM; IC50 ([3]; Homo sapiens, MOLT-3): 20 ± 1.3 µM
5 | 5-(2-hydroxyethylthio)-671-phenyl-2-hydroxyethylamino-3-isopropylpyrazolo[4,3-d]pyrimidine [Compound 96] |  |  |  |  |  |  |  | IC50 [1]: 8 ± 0.5 µM; Effectiveness on KG1 compared with normal PBMC [2]: significantly more effective on KG1 than on normal PBMC; IC50 [2]: 9 ± 0.4 µM; IC50 (cdk1/cyclin B (CDC2)): 5.8 µM; IC50 [3]: 10 ± 1.2 µM
6 | CC(=O)c1ccccc1CNc1ncnc2cn[nH]c12 [H / 2-acetylbenzylamino / H] |  | 3 | 5 | 28 |  |  |  | 
7 | CCC(CO)Nc1nc(NCc2ccc(O)c(O)c2)c2ncn(C(C)C)c2n1 (stereo not shown) [Compound 243, 2-(1-ethyl-2-hydroxyethylamino)-6(3,4-dihydroxybenzylamino)-9-isopropylpurine] |  |  |  |  |  |  |  | IC50 ([1]; Homo sapiens, Lymphocyte): 9 ± 6.6 µM; IC50 ([3]; Homo sapiens, MOLT-3): 9 ± 1.2 µM
8 | 5-(5-cyanopentyl)-7-[(R,S)-(1-phenyl-2-hydroxyethyl)amino]-9-isopropylpurine [Compound 123] |  |  |  |  |  |  |  | IC50 [1]: 33 ± 4.4 µM; IC50 [2]: 42 ± 4.8 µM; IC50 (cdk1/cyclin B (CDC2)): 33 µM; IC50 [3]: 42.5 ± 6 µM
9 | 5-(3-hydroxypropylamino)-7-[N-(3,4-dihydroxybenzyl-N-methyl]amino-isopropylpyrazolo[4,3-d]pyrimidine [Compound 42] |  |  |  |  |  |  |  | IC50 [1]: 5.9 ± 2.9 µM; IC50 [2]: 10.7 ± 0.3 µM; IC50 (cdk1/cyclin B (CDC2)): 2.6 µM; IC50 [3]: 13 ± 2.1 µM
10 | CC(C)c1n[nH]c2c(NCc3ccccc3)nc(NCCN)nc12 | 1.2 |  |  |  | 26 | 42 | 11.5 | 
11 | CC(C)c1n[nH]c2c(Nc3cccc(Cl)c3)nc(NC3CCC(N)CC3)nc12 (stereo not shown) | 0.012 | 4 | 5 | 35 | 0.5 | 1.3 | 0.5 | 
12 | CC(C)c1n[nH]c2c(Nc3cccc(Cl)c3)nc(NCCCN)nc12 | 0.08 |  |  |  | 15 | 18 | 4.5 | 
13 | CC(C)c1n[nH]c2c(NCc3ccccc3)nc(NCCCO)nc12 | 0.8 |  |  |  | 21 | 32 | 21 | 
14 | Nc1c(Cl)ccc(CNc2ncnc3cn[nH]c23)c1N [H / 2,3-diamino-4-chlorobenzylamine / H] |  | 3 | 3 | 18 |  |  |  | 
15 | 5-(3-hydroxypropylamino)-7[N-(3,4-dihydroxybenzyl-N-methyl]amino-3-isopropylpyrazolo[4,3-d]pyrimidine [Compound 50] |  |  |  |  |  |  |  | IC50 [1]: 15 ± 7.3 µM; IC50 [2]: 21 µM; IC50 [3]: 21 µM
16 | CN(Cc1ccc(O)c(O)c1)c1ncnc2cn[nH]c12 |  | 4 | 4 | 22 |  |  |  | 

More lines, main results first:

Row | IC50 (MMK1 protein kinase) [µM] | Compound | SENESCENT CELLS (%) HCA25 [4] [%] | SENESCENT CELLS (%) HCA45 [4] [%] | SENESCENT CELLS (%) HCA80 [4] [%] | GI50 [5] [µM] | GI50 (B16) [µM] | EC50 (normal human lymphocytes) [µM] | other results
17 | 0.012 | CC(C)c1n[nH]c2c(Nc3cccc(Cl)c3)nc(NC3CCCCC3N)nc12 (stereo not shown) |  |  |  | 14 | 28 | 0.2 | 
18 | 8.1 | Cc1n[nH]c2c(NCc3ccccc3)nc(N(CCO)CCO)nc12 |  |  |  | 35 | 40 | 25 | 
19 | 0.28 | CC(C)c1n[nH]c2c(Nc3cccc(Cl)c3)nc(NCCO)nc12 | 4 | 4 | 38 | 18 | 29 | 17 | 
20 | 5.8 | Cc1n[nH]c2c(NCc3ccccc3)nc(NCCCO)nc12 |  |  |  | 40 | 41 | 28 | 
21 | 0.02 | CC(C)c1n[nH]c2c(NCc3ccccc3)nc(NC3CCCCC3N)nc12 (stereo not shown) |  |  |  | 14 | 28 | 0.8 | 
22 | 29.3 | Cc1n[nH]c2c(NCc3ccccc3)nc(NCCO)nc12 |  |  |  | 45 | 47 | 34 | 
23 | 0.02 | CC(C)c1n[nH]c2c(NCc3ccccc3)nc(NC3CCC(N)CC3)nc12 (stereo not shown) |  |  |  | 1.5 | 2.3 | 1.1 | 
